# According to US20150118229A1, “JAK1 SELECTIVE INHIBITOR AND USES THEREOF” (ABBVIE INC., priority 2013, published 2015):
# Values joined by “and” are separate entries in the source; they are usually repeats but may differ in a detail not shown here. Equal values may be shown once. “Also recorded” adds a separate entry of the source. Read-outs that look alike come from different tables or passages of the source.
# Legend:
# [1] = Pharmacokinetics in rat; assay type: in vivo; details: for clearance: read-out: CLp (converted); for Vd: read-out: Vss
# [2] = molecular target: P-gp (Homo sapiens, UniProt P08183); assay: P-gp inhibition; assay type: in vitro ADME
# P-gp, sequence (P08183 whole entry): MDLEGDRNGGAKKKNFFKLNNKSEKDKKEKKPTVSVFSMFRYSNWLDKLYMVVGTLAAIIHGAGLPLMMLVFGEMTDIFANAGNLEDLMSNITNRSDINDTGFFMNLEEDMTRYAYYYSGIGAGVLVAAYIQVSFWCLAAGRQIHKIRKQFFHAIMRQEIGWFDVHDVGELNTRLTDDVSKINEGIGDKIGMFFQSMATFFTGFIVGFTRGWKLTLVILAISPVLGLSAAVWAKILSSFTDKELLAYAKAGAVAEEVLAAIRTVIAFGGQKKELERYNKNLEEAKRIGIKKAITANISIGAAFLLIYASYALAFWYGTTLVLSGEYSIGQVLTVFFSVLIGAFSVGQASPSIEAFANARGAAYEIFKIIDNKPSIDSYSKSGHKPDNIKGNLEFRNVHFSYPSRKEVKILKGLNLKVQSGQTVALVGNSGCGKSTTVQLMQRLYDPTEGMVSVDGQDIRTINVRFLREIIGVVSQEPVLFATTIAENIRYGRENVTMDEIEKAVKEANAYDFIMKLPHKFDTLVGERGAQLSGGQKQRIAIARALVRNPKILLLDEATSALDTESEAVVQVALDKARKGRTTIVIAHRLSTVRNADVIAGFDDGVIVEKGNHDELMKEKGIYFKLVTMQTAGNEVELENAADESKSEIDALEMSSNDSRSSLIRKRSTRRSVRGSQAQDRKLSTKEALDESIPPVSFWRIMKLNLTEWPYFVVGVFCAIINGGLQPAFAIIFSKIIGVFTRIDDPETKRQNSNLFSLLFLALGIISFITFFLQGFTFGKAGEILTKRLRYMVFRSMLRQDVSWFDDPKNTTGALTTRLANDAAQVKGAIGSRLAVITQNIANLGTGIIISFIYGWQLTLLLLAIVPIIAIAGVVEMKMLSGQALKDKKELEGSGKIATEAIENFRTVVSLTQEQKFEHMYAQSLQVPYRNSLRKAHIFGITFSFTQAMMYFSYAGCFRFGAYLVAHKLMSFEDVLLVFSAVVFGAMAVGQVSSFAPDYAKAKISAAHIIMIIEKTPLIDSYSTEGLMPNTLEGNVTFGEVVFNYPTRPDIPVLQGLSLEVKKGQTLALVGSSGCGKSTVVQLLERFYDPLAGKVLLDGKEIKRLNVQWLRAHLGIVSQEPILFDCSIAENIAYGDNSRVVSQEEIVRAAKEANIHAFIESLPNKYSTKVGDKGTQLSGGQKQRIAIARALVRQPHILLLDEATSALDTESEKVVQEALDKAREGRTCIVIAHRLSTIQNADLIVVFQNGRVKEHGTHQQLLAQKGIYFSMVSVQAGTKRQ
# [3] = Metabolic stability in liver microsomes, monkey; assay type: in vitro ADME; details: read-out: intrinsic clearance in liver microsomes (scaled)
# [4] = Metabolic stability in liver microsomes, dog; assay type: in vitro ADME; details: read-out: intrinsic clearance in liver microsomes (scaled)
# [5] = molecular target: CYP3A4 (Homo sapiens, UniProt P08684); assay: Metabolism by recombinant CYP3A4; assay type: in vitro ADME
# CYP3A4, sequence (P08684 whole entry): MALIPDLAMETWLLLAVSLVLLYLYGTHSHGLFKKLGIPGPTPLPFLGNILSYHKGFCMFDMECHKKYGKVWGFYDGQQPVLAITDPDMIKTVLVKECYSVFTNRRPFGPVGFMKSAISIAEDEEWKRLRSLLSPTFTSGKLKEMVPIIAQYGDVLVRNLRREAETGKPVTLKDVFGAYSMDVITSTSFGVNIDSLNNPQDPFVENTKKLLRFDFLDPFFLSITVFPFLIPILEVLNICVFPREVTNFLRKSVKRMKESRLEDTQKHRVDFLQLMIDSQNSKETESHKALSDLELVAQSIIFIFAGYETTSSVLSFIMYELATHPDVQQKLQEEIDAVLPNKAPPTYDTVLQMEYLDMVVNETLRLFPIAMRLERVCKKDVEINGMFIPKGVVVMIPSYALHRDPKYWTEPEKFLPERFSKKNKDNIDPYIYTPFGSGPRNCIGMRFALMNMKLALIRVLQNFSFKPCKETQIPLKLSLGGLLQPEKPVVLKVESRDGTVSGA
# Text: In vitro biotransformation of Compound 1 primarily occurred at imidazolpyrrolopyrazinyl ethyl pyrrolidine moiety.
# [6] = system: CYP2B6; assay: CYP induction (mRNA) in human hepatocytes, CYP2B6; assay type: in vitro ADME
# [7] = system: Balb/c 3T3 mouse fibroblasts; assay: Neutral red uptake phototoxicity assay; assay type: cell-based
# [8] = Definitive embryofetal development toxicity study in rabbits; assay type: in vivo, New Zealand White rabbits; details: rabbit
# Text: One additional group of 20 time-mated females served as the control and received the vehicle, 0.2% hydroxypropyl methylcellulose (HPMC, high viscosity) in deionized water.
# [9] = Human PK, single ascending dose Study M13-401; assay type: in vivo; details: for AUC(0-t) / AUC(0-inf): human, in vivo
# [10] = dog, in vivo
# [11] = molecular target: OCT2 (Homo sapiens, UniProt O15244); assay: Transporter inhibition, OCT2; details: up to 30 μM
# OCT2, sequence (O15244 whole entry): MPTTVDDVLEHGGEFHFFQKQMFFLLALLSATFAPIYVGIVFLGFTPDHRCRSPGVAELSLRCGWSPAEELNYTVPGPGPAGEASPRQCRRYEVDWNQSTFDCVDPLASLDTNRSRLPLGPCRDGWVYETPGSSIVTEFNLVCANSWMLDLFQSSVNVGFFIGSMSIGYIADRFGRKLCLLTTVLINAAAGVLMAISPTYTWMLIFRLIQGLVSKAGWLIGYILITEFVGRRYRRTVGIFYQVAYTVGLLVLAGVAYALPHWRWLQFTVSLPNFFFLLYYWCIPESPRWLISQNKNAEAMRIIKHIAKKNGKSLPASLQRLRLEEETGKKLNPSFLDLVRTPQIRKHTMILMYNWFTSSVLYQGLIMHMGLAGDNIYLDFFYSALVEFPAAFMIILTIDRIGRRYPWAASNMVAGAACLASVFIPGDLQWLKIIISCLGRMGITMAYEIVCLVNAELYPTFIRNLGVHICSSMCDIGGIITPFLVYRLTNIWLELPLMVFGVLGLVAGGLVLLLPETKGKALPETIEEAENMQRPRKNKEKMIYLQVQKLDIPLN
# [12] = Clinical safety, Study M13-401
# [13] = molecular target: OATP1B3 (Homo sapiens, UniProt Q9NPD5); assay: Transporter inhibition, OATP1B3; details: up to 30 μM
# OATP1B3, sequence (Q9NPD5 whole entry): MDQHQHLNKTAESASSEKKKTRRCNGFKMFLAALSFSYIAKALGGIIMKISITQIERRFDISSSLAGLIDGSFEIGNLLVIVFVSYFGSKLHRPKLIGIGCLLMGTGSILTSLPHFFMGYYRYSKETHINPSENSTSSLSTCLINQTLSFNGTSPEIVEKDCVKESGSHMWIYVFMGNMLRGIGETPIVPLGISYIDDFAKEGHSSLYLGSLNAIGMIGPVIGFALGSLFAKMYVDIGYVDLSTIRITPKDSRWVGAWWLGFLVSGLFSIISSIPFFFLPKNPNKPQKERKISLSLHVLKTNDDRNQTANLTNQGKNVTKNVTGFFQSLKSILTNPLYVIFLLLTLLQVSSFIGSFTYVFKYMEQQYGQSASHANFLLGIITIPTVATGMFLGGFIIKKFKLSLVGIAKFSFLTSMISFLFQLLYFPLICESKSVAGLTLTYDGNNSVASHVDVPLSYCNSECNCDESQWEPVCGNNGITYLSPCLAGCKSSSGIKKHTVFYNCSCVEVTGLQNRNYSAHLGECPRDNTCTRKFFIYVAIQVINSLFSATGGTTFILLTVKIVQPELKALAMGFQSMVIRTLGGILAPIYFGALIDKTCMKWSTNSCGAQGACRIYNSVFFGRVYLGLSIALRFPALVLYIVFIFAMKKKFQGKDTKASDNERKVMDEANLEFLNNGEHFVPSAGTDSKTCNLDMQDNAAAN
# [14] = molecular target: CYP1A2 (Homo sapiens, UniProt P05177); assay: CYP inhibition in human liver microsomes, CYP1A2
# CYP1A2, sequence (P05177 whole entry): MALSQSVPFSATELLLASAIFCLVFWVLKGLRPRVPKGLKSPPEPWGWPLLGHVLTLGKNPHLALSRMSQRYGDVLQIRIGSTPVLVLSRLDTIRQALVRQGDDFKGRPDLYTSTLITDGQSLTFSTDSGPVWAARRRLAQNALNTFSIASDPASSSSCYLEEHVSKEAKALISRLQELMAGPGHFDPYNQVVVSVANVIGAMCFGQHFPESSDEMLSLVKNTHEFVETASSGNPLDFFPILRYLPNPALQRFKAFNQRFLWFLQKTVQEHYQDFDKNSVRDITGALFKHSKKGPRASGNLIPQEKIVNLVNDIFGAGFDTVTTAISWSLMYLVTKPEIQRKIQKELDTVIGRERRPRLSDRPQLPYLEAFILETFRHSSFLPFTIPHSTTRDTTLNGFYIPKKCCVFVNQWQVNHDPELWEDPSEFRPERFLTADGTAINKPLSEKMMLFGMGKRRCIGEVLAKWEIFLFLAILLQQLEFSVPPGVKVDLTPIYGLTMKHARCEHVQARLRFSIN
# [15] = molecular target: CYP2C9 (Homo sapiens, UniProt P11712); assay: CYP inhibition in human liver microsomes, CYP2C9
# CYP2C9, sequence (P11712 whole entry): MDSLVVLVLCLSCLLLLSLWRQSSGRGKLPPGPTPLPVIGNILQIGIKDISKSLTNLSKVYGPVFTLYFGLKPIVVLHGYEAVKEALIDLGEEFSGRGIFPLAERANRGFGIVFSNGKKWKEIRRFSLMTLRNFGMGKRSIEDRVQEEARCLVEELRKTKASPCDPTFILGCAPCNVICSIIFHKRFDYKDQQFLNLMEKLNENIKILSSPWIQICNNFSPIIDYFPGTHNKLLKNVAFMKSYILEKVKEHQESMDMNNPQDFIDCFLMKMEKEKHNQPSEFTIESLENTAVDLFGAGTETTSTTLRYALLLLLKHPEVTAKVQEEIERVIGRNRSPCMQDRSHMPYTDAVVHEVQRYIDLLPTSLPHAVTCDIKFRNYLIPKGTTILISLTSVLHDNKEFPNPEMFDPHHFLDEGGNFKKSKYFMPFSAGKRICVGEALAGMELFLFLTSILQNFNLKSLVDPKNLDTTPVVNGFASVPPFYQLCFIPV
# [16] = female, Sprague-Dawley, rat, plasma, po, 50 mg/kg/day, rat F, oral 50 mg/kg/day, Day 1, mean (SD)
# [17] = male, Sprague-Dawley, rat, plasma, po, 10 mg/kg/day, rat M, oral 10 mg/kg/day, Day 1, mean (SD)
# [18] = male, Sprague-Dawley, rat, plasma, po, 100 mg/kg/day, rat M, oral 100 mg/kg/day, Day 1, mean (SD)
# [19] = plasma, rat, IV 0.3 mg/kg single dose
# [20] = plasma, rat, IV 0.3 mg/kg single dose, mean (SD)
# [21] = plasma, rat, IV 3 mg/kg single dose
# [22] = plasma, rat, IV 3 mg/kg single dose, mean (SD)
# [23] = rat, plasma, po, 3 mg/kg, oral 3 mg/kg single dose, mean (SD)
structure (smiles),measurement,setting,value
"CC[C@@H]1CN(C(=O)NCC(F)(F)F)C[C@@H]1c1cnc2cnc3[nH]ccc3n12 [Compound 1, (3S,4R)-3-ethyl-4-(3H-imidazo[1,2-a]pyrrolo[2,3-e]pyrazin-8-yl)-N-(2,2,2-trifluoroethyl)pyrrolidine-1-carboxamide]",AUC,"[1]; female, Sprague-Dawley, plasma, rat F, oral 10 mg/kg/day, Day 1, mean (SD)",1870 ng·h/mL
same,AUC at 29 days,"[1]; female, Sprague-Dawley, plasma, rat F, oral 10 mg/kg/day, Day 29, mean (SD)",2280 ng·h/mL
same,AUC,"[1]; female, Sprague-Dawley, plasma, rat F, oral 50 mg/kg/day, Day 1, mean (SD)",22400 ng·h/mL
same,AUC at 29 days,"[1]; female, Sprague-Dawley, plasma, rat F, oral 50 mg/kg/day, Day 29, mean (SD)",33200 ng·h/mL
same,AUC,"[1]; female, Sprague-Dawley, plasma, rat F, oral 100 mg/kg/day, Day 1, mean (SD)",54100 ng·h/mL
same,AUC at 29 days,"[1]; female, Sprague-Dawley, plasma, rat F, oral 100 mg/kg/day, Day 29, mean (SD)",63800 ng·h/mL
same,AUC,"[1]; female, Sprague-Dawley, plasma, rat F, oral 200 mg/kg/day, Day 1, mean (SD)",108000 ng·h/mL
same,Cmax,"[1]; female, Sprague-Dawley, rat, plasma, po, 10 mg/kg/day, rat F, oral 10 mg/kg/day, Day 1, mean (SD)",468 ng/mL
same,Cmax at 29 days,"[1]; female, Sprague-Dawley, rat, plasma, po, 10 mg/kg/day, rat F, oral 10 mg/kg/day, Day 29, mean (SD)",650 ng/mL
same,Cmax,[1]; [16],5160 ng/mL
same,Tmax,[1]; [16],2.2 h
same,Cmax,"[1]; female, Sprague-Dawley, rat, plasma, po, 100 mg/kg/day, rat F, oral 100 mg/kg/day, Day 1, mean (SD)",13500 ng/mL
same,Cmax,"[1]; female, Sprague-Dawley, rat, plasma, po, 200 mg/kg/day, rat F, oral 200 mg/kg/day, Day 1, mean (SD)",18200 ng/mL
same,AUC,"[1]; male, Sprague-Dawley, plasma, rat M, oral 10 mg/kg/day, Day 1, mean (SD)",1390 ng·h/mL
same,AUC at 29 days,"[1]; male, Sprague-Dawley, plasma, rat M, oral 10 mg/kg/day, Day 29, mean (SD)",1490 ng·h/mL
same,AUC,"[1]; male, Sprague-Dawley, plasma, rat M, oral 50 mg/kg/day, Day 1, mean (SD)",15900 ng·h/mL
same,AUC at 29 days,"[1]; male, Sprague-Dawley, plasma, rat M, oral 50 mg/kg/day, Day 29, mean (SD)",16800 ng·h/mL
same,AUC,"[1]; male, Sprague-Dawley, plasma, rat M, oral 100 mg/kg/day, Day 1, mean (SD)",24900 ng·h/mL
same,AUC at 29 days,"[1]; male, Sprague-Dawley, plasma, rat M, oral 100 mg/kg/day, Day 29, mean (SD)",40800 ng·h/mL
same,AUC,"[1]; male, Sprague-Dawley, plasma, rat M, oral 200 mg/kg/day, Day 1, mean (SD)",50400 ng·h/mL
same,Cmax,[1]; [17],224 ng/mL
same,Tmax,[1]; [17],2.2 h
same,Cmax,"[1]; male, Sprague-Dawley, rat, plasma, po, 50 mg/kg/day, rat M, oral 50 mg/kg/day, Day 1, mean (SD)",3030 ng/mL
same,Cmax,[1]; [18],3910 ng/mL
same,Tmax,[1]; [18],3.2 h
same,Tmax at 29 days,"[1]; male, Sprague-Dawley, rat, plasma, po, 100 mg/kg/day, rat M, oral 100 mg/kg/day, Day 29, mean (SD)",3.2 h
same,Cmax,"[1]; male, Sprague-Dawley, rat, plasma, po, 200 mg/kg/day, rat M, oral 200 mg/kg/day, Day 1, mean (SD)",7250 ng/mL
same,half-life,[1]; [19],1 h
same,AUC(0-inf),[1]; [20],80 ng·h/mL
same,clearance,[1]; [20],63.3 mL/min/kg
same,Vd,[1]; [19],2.7 L/kg
same,half-life,[1]; [21],3 h
same,AUC(0-inf),[1]; [22],1550 ng·h/mL
same,clearance,[1]; [22],33.3 mL/min/kg
same,Vd,[1]; [21],2.2 L/kg
same,clearance,"[1]; plasma, rat, IV",33.3 to 63.3 mL/min/kg
same,half-life,"[1]; plasma, rat, oral 3 mg/kg single dose",5.2 h
same,AUC(0-inf),"[1]; plasma, rat, oral 3 mg/kg single dose, mean (SD)",472 ng·h/mL
same,Vc,"[1]; rat, IV 0.3 mg/kg single dose",1.8 L/kg
same,Vβ,"[1]; rat, IV 0.3 mg/kg single dose",5.7 L/kg
same,Vc,"[1]; rat, IV 3 mg/kg single dose",0.46 L/kg
same,Vβ,"[1]; rat, IV 3 mg/kg single dose",9.4 L/kg
same,F,"[1]; rat, oral 3 mg/kg single dose, mean (SD), 3 mg/kg",30.5% and 30.5 (11.8) %
same,Cmax,[1]; [23],95 ng/mL
same,Tmax,[1]; [23],2.2 h
same,IC50,[2],348 µM
same,CLint scaled at 0.5 μM,[3],< 26.7 mL/min/kg
same,CLint scaled at 0.5 μM,[4],< 33.3 mL/min/kg
same,percentage of parent remaining,[5],36.0%
same,"CYP2B6 mRNA expression, % of the response of phenobarbital",[6]; 10 μM,25%
same,mRNA expression of CYP2B6,[6]; 1 and 3 μM,did not increase
same,phototoxicity potential,[7],negative
same,maternal and fetal examinations,[8]; 2.5 and 10 mg/kg/day,no Compound 1-related effects
same,NOEL,"[8]; oral, GD 7-19",NOEL = 10 mg/kg/day
same,decrease in AUC in the presence of food,"[9]; Substudy 2, 3 mg single dose",< 1%
same,AUC(0-t),"[9]; oral, 3 mg",102 ng·h/mL
same,AUC(0-t),"[9]; oral, 6 mg",159 ng·h/mL
same,AUC(0-t),"[9]; oral, 24 mg",612 ng·h/mL
same,AUC(0-inf),"[9]; single oral 1 mg, mean ± SD",30.1 ± 5.72 ng·h/mL
same,AUC(0-t),"[9]; single oral 1 mg, mean ± SD",29.8 ± 5.78 ng·h/mL
same,AUC(0-t),"[9]; single oral 3 mg, mean ± SD",102 ± 27.5 ng·h/mL
same,AUC(0-t),"[9]; single oral 6 mg, mean ± SD",159 ± 37.5 ng·h/mL
same,AUC(0-t),"[9]; single oral 12 mg, mean ± SD",329 ± 48.9 ng·h/mL
same,AUC(0-t),"[9]; single oral 24 mg, mean ± SD",612 ± 78.6 ng·h/mL
same,AUC(0-t),"[9]; single oral 36 mg, mean ± SD",909 ± 201 ng·h/mL
same,AUC(0-inf),"[9]; single oral 48 mg, mean ± SD",1040 ± 174 ng·h/mL
same,AUC(0-t),"[9]; single oral 48 mg, mean ± SD",1030 ± 174 ng·h/mL
same,"fe, dose recovered unchanged in urine","[9]; single oral 1 mg, mean ± SD",17.7 ± 9.58%
same,"fe, dose recovered unchanged in urine","[9]; single oral 3 mg, mean ± SD",15.6 ± 4.44%
same,"fe, dose recovered unchanged in urine","[9]; single oral 6 mg, mean ± SD",15.6 ± 3.49%
same,"fe, dose recovered unchanged in urine","[9]; single oral 12 mg, mean ± SD",19.9 ± 2.26%
same,"fe, dose recovered unchanged in urine","[9]; single oral 24 mg, mean ± SD",18.6 ± 3.08%
same,"fe, dose recovered unchanged in urine","[9]; single oral 36 mg, mean ± SD",20.8 ± 9.25%
same,"fe, dose recovered unchanged in urine","[9]; single oral 48 mg, mean ± SD",16.4 ± 5.48%
same,AUC lower in fed than fasted animals,[10],approximately 40%
same,Cmax lower in fed than fasted animals,[10],approximately 3 fold
same,Vc,"[10]; iv, 1 mg/kg",1.9 L/kg
same,Vβ,"[10]; iv, 1 mg/kg",2.9 L/kg
same,F,"[10]; po, 5 mg/kg",65.8 (12.1) %
same,inhibition of OCT2 uptake,[11],No significant inhibition
same,effects on blood pressure and heart rate,"[12]; FIH study, through highest single dose of 48 mg",no effects
same,subjects meeting predefined criteria for potentially clinically significant QT or QTcF interval,[12]; Study M13-401,No subjects
same,"adverse events severe, serious, or fatal",[12]; Study M13-401 Substudy 1 and 2,None
same,dose-limiting toxicities,"[12]; healthy volunteers, single doses 1 to 48 mg and 3, 6, 12, 24 mg twice daily 14 days",no dose-limiting toxicities
same,inhibition of OATP1B3 uptake,[13],No significant inhibition
same,time-dependent inhibition of CYP1A2,[14]; human liver microsomes,No obvious time-dependent inhibition
same,inhibition of CYP1A2,[14]; up to 30 μM,did not inhibit; also recorded: not an inhibitor
same,time-dependent inhibition of CYP2C9,[15]; human liver microsomes,No obvious time-dependent inhibition
same,inhibition of CYP2C9,[15]; up to 30 μM,did not inhibit; also recorded: not an inhibitor
